# Laboratory results as given in patent publication US20250340537A1, “PHARMACEUTICALLY ACTIVE COMPOUNDS, COMPOSITIONS, AND METHODS FOR MODULATING PENDRIN” (ARBORMED Co., Ltd., priority 2022, published 2025).
# Molecular target: T1, H723R-pendrin (Homo sapiens, UniProt O43511, H723R)
# T1 construct: expressed in transfected cells; host or cells: PANC-1
# T1 sequence (O43511 1-780 H723R): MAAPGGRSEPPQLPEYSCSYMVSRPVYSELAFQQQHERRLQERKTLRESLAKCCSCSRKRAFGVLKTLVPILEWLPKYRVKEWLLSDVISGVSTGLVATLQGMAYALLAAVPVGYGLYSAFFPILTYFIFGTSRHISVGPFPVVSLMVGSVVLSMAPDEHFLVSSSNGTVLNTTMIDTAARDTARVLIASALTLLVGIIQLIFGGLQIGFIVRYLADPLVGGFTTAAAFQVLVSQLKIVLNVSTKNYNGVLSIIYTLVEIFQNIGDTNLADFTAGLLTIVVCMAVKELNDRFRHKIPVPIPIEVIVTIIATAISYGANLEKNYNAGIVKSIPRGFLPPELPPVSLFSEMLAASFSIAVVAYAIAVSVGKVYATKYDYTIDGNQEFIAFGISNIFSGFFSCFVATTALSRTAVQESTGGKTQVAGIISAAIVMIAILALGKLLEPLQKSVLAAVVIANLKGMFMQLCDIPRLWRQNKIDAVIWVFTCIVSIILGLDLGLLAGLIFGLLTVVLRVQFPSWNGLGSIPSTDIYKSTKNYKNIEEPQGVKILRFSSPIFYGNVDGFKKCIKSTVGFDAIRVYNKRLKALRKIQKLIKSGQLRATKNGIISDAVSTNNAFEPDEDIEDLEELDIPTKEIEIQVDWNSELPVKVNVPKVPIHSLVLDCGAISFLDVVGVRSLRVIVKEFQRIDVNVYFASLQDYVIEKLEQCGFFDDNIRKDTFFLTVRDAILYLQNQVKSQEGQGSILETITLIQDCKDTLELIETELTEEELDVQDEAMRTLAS
# Assay: YFP fluorescence quenching assay (Cl−/I− exchange activity of pendrin)
# Type: cell-based
# Details: PANC-1 cells stably expressing human H723R-pendrin and YFP-F46L/H148Q/I152L; compound incubation 20-24 hours; iodide influx
# Description: Halide sensor YFP F46L/H148Q/I152L is quenched by halide ion like Iodide. When such YFP is expressed in a cell, it expresses in the cytoplasm.
# To measure H723R-PDS activity, PANC-1 cells were stably transfected with halide sensors YFP-F46L/H148Q/I152L and H723R-PDS which has problems with membrane trafficking due to misfolding.
# If the cell-treated drug is a corrector for H723R-PDS, H723R-PDS will translocate normally to the plasma membrane.
# At this time, when treated with a high-concentration iodide solution outside the cell, iodide enters the cell due to the Cl−/I− exchange activity of pendrin, and the fluorescence of the halide sensor YFP decreases.
# PANC-1 cells were cultured in Dulbecco's Modified Eagle's Medium with 10% fetal bovine serum, 2 mM glutamine, 100 units/ml penicillin and 100 µg/ml streptomycin. For high-throughput screening, PANC-1 cells were stably transfected with human H723R-pendrin and halide sensor YFP-F46L/H148Q/I152L.
# PANC-1 cells expressing human H723R-pendrin and YFP-F46L/H148Q/I152L were plated in 96-well microplates at a density of 2×10^4 cells per well and grown for 20-24 hours at 37° C. (90% humidity 5% CO2). Then these cells were treated with 50 μl growth medium containing test compounds and incubated for 20-24 hours. For YFP quenching assay, each well of the 96-well plate was washed 2 times with 200 μl of PBS, and it was filled with 50 μl of HEPES-buffered solution (140 mM NaCl, 5 mM KCl, 1 mM MgCl2, 1 mM CaCl2, 10 mM D-glucose, 10 mM HEPES; pH 7.4 with NaOH). After 10 minutes of incubation at 37° C., the 96-well plate was moved on the FLUOstar Omega Microplate Reader (BMG Labtech, Ortenberg, Germany) for a fluorescence assay. Each well was assayed individually for H723R-pendrin mediated I^− influx by recording fluorescence (495±15 nm excitation, 520±20 nm emission) every 400 ms for 1 second (baseline). Then, 50 μL of NaI-substituted HEPES-buffered solution (NaI replacing NaCl) was added using a liquid injector at 1 second and YFP fluorescence was recorded every 400 ms for 10 seconds. The initial iodide influx rate was determined from the initial slope of fluorescence by nonlinear regression, after the infusion of iodide.
# It is indicated as EC50 with the following key: A=EC50 less than 5 uM; B=EC50 greater than 5 uM, but less than 10 uM; C=EC50 greater than 10 uM.
row,SMILES,EC50 [µM]
1,CNc1ccc(-c2cncc(C3=C(N)N(CC(C)C)CC3=O)n2)cc1NC [Compound 26],> 10
2,COc1ccc(-c2cccc(C3=C(N)N(CC4CCNC4)CC3=O)n2)cc1OC (stereo not drawn) [Compound 85],> 10
3,COc1ccc(-c2cccc(C3=C(N)N(CC4CCOC4)CC3=O)n2)cc1OC (stereo not drawn) [Compound 87],5 to 10
4,NC1=C(c2cncc(-c3ccc(O)c(O)c3)n2)C(=O)CN1c1ccccc1O [Compound 43],> 10
5,NC1=C(c2cncc(-c3ccc(O)c(OC4CC(N)C4)c3)n2)C(=O)CN1CC1CCCC1 (stereo not drawn) [Compound 113],> 10
6,NC1=C(c2ccnc(-c3ccc(O)c(O)c3)c2)C(=O)CN1c1ccccc1F [Compound 101],> 10
7,COc1ccc(-c2cncc(C3=C(N)N(c4ccccc4Cl)CC3=O)n2)c(OC)c1 [Compound 20],5 to 10
8,COc1ccc(-c2cncc(C3=C(N)N(CC4CCCC4)CC3=O)c2)cc1OC [Compound 50],> 10
9,COC(CN1CCN(c2cncc(C3=C(N)N(c4ccccc4Cl)CC3=O)n2)CC1)OC [Compound 25],> 10
10,NC1=C(c2cncc(-c3ccc(O)c(O)c3)n2)C(=O)CN1c1cccc(Cl)c1Cl [Compound 64],5 to 10
11,NC1=C(c2cccc(-c3ccc(O)c(O)c3)n2)C(=O)CN1CCC(F)(F)F [Compound 94],> 10
12,NC1=C(c2cncc(-c3ccc4nc[nH]c4c3)n2)C(=O)CN1c1ccccc1Cl [Compound 34],> 10
13,NC1=C(c2ccc(-c3ccc(O)c(O)c3)nc2)C(=O)CN1c1ccccc1Cl [Compound 59],> 10
14,CNc1ccc(-c2cncc(C3=C(N)N(c4ccccc4Cl)CC3=O)n2)cc1NC [Compound 23],> 10
15,COc1cc(-c2ccnc(C3=C(N)N(CC4CCCC4)CC3=O)n2)ccc1O [Compound 110],< 5
16,NC1=C(c2ccnc(-c3ccc(O)c(O)c3)c2)C(=O)CN1c1ccccc1Cl [Compound 102],> 10
17,COc1ccc(-c2cc(C3=C(N)N(c4ccccc4Cl)CC3=O)ccn2)cc1OC [Compound 106],> 10
18,NC1=C(c2cncc(-c3cc(O)cc(O)c3)n2)C(=O)CN1c1ccccc1Cl [Compound 24],> 10
19,NC1=C(c2cncc(-c3ccc(O)c(O)c3)n2)C(=O)CN1CC1CCNC1 (stereo not drawn) [Compound 40],> 10
20,NC1=C(c2ccnc(-c3ccc(O)c(O)c3)c2)C(=O)CN1CC1CCCC1 [Compound 109],> 10

row,SMILES,EC50 [µM]
1,NC1=C(c2cncc(-c3ccc(O)c(OC(F)(F)F)c3)n2)C(=O)CN1c1ccccc1Cl [Compound 32],5 to 10
2,NC1=C(c2cncc(-c3ccc(O)c(O)c3)c2)C(=O)CN1CC1CCCC1 [Compound 54],> 10
3,COc1ccc(-c2cccc(C3=C(N)N(c4ccccc4F)CC3=O)n2)cc1OC [Compound 3],> 10
4,COCOc1ccc(-c2cncc(C3=C(N)N(C4CCCC4)CC3=O)n2)cc1OC1COC1 [Compound 115],> 10
5,COc1ccc(-c2cncc(C3=C(N)N(c4ccccc4Cl)CC3=O)n2)cc1O [Compound 29],> 10
6,COc1ccc(-c2cncc(C3=C(N)N(CC4CCNC4)CC3=O)n2)cc1OC (stereo not drawn) [Compound 39],> 10
7,NC1=C(c2cncc(-c3ccc(O)c(OC4COC4)c3)n2)C(=O)CN1CC1CCC1 [Compound 112],5 to 10
8,COc1ccc(-c2cc(C3=C(N)N(c4ccccc4F)CC3=O)ccn2)cc1OC [Compound 100],> 10
9,COc1ccc(-c2cncc(C3=C(N)N(CC4CCOC4)CC3=O)n2)cc1OC (stereo not drawn) [Compound 36],> 10
10,NC1=C(c2cncc(-c3ccc(O)c(O)c3)n2)C(=O)CN1CCC(F)(F)F [Compound 19],> 10
11,COc1ccc(-c2nccc(C3=C(N)N(c4ccccc4Cl)CC3=O)n2)cc1OC [Compound 98],> 10
12,NC1=C(c2nccc(-c3ccc(O)c(O)c3)n2)C(=O)CN1CC1CCNC1 (stereo not drawn) [Compound 83],> 10
13,COc1ccc(-c2cncc(C3=C(N)N(c4ccccc4OC)CC3=O)n2)cc1OC [Compound 37],> 10
14,COc1cc2c(cc1OC)CN(c1cncc(C3=C(N)N(c4ccccc4Cl)CC3=O)n1)CC2 [Compound 16],> 10
15,COc1ccc(-c2ccnc(C3=C(N)N(CC4CCCC4)CC3=O)n2)cc1OC [Compound 56],> 10
16,CN1CCC(CN2CC(=O)C(c3cncc(-c4ccc(O)c(O)c4)n3)=C2N)C1 (stereo not drawn) [Compound 53],> 10
17,NC1=C(c2cncc(-c3ccc(O)c(OC4COC4)c3)n2)C(=O)CN1CC1CCCC1 [Compound 70],< 5
18,COc1ccc(-c2cc(C3=C(N)N(CC4CCCC4)CC3=O)ccn2)cc1OC [Compound 108],> 10
19,NC1=C(c2cncc(-c3ccc(O)c(O)c3)c2)C(=O)CN1c1ccccc1Cl [Compound 47],> 10
20,COc1cc(OC)cc(-c2cncc(C3=C(N)N(c4ccccc4Cl)CC3=O)n2)c1 [Compound 22],> 10

row,SMILES,EC50 [µM]
1,COCCOc1cc(-c2cncc(C3=C(N)N(CC4CCCC4)CC3=O)n2)ccc1O [Compound 99],< 5
2,COc1ccc(-c2ccnc(C3=C(N)N(CCC(F)(F)F)CC3=O)n2)cc1OC [Compound 96],> 10
3,COc1ccc(-c2cncc(C3=C(N)N(C4CCC(F)(F)C4)CC3=O)n2)cc1OC (stereo not drawn) [Compound 61],> 10
4,COc1ccc(-c2cncc(C3=C(N)N(CCC(F)(F)F)CC3=O)n2)cc1OC [Compound 17],> 10
5,NC1=C(c2cccc(-c3ccc(O)c(O)c3)n2)C(=O)CN1c1ccccc1Cl [Compound 76],> 10
6,COc1cc(-c2cncc(C3=C(N)N(c4ccccc4Cl)CC3=O)n2)cnc1OC [Compound 21],> 10
7,COc1ccc(-c2cnc(C3=C(N)N(c4ccccc4F)CC3=O)nc2)cc1OC [Compound 2],> 10
8,NC1=C(c2cncc(-c3ccc(O)c(O)c3)n2)C(=O)CN1c1cccnc1Cl [Compound 119],> 10
9,COc1ccc(-c2cncc(C3=C(N)N(CC4CCCC4)CC3=O)n2)cc1OC [Compound 15],5 to 10
10,COc1ccc(-c2cncc(C3=C(N)N(c4ccccc4O)CC3=O)n2)cc1OC [Compound 42],> 10
11,COc1ccc(-c2cccc(C3=C(N)N(c4ccccc4Cl)CC3=O)n2)cc1OC [Compound 75],> 10
12,COCOc1ccc(-c2cncc(C3=C(N)N(CC4CCCC4)CC3=O)n2)cc1OC [Compound 116],< 5
13,COc1ccc(-c2nccc(C3=C(N)N(CC4CCCC4)CC3=O)n2)cc1OC [Compound 77],> 10
14,NC1=C(c2cncc(-c3cnc(O)c(O)c3)n2)C(=O)CN1c1ccccc1Cl [Compound 38],> 10
15,COc1ccc(-c2cncc(C3=C(N)N(c4ccccc4Cl)CC3=O)n2)cc1OC [Compound 6],5 to 10
16,NC1=C(c2nccc(-c3ccc(O)c(O)c3)n2)C(=O)CN1CCC(F)(F)F [Compound 97],> 10
17,COc1ccc(-c2cncc(C3=C(N)N(CCC(F)(F)F)CC3=O)c2)cc1OC [Compound 88],> 10
18,COc1ccc(-c2cncc(C3=C(N)N(CC4CCC4)CC3=O)n2)cc1OC [Compound 66],5 to 10
19,COc1ccc(-c2cc(C3=C(N)N(c4ccccc4Cl)CC3=O)ncn2)cc1OC [Compound 68],> 10
20,NC1=C(c2cncc(-c3ccc(O)c(OC4CNC4)c3)n2)C(=O)CN1CC1CCCC1 [Compound 89],> 10
